{"source": "paper PMC5816697", "about": "(European journal of medicinal chemistry, 2018)", "key": {"Ba/F3 BCR-ABL": {"system": "Ba/F3 BCR-ABL", "assay": "MTT growth inhibition assay, Ba/F3 cells expressing Bcr-Abl", "assay_type": "cell-based", "settings": "ratio of IC50 values"}, "[1]": {"system": "phosphorylation of Abl at Y412", "assay": "Immunoblot of Abl Y412 phosphorylation in BCR-ABL-expressing Ba/F3 cells", "assay_type": "cell-based"}, "[2]": {"system": "phosphorylation of MEK and ERK (BRAF^V600E downstream signaling)", "assay": "Western blot of MEK/ERK phosphorylation in A375 cells", "assay_type": "cell-based"}, "panel of 244 kinases": {"system": "panel of 244 kinases", "assay": "Kinome profiling against a panel of 244 kinases", "assay_type": "biochemical", "settings": "1 μM compound"}}, "note": "Entries after “also recorded” stand apart in the source; their conditions may differ.", "data": [{"smiles": "CC(C)n1nc(C#Cc2cccc3cc(-c4ccc(CN5CCN(C)CC5)cc4)ncc23)c2c(N)ncnc21", "note": "[Compound 2f, 1-Isopropyl-3-((3-(4-((4-methylpiperazin-1-yl)methyl)phenyl)isoquinolin-8-yl)ethynyl)-1H-pyrazolo[3,4-d]pyrimidin-4-amine]", "values": [{"measurement": "fold less potent than parent compound 1 against Bcr-Abl Ba/F3 cells", "setting": "Ba/F3 BCR-ABL", "result": 44, "unit": "fold"}, {"measurement": "fold lower potency than compound 1, Abl Y412 phosphorylation", "setting": "[1]", "result": "approximately 30 fold"}]}, {"smiles": "CCn1nc(C#Cc2cccc3cc(-c4cccc(C(F)(F)F)c4)ncc23)c2c(N)ncnc21", "note": "[Compound 2d, 1-Ethyl-3-((3-(3-(trifluoromethyl)phenyl)isoquinolin-8-yl)ethynyl)-1H-pyrazolo[3,4-d]p yrimidin-4-amine]", "values": [{"measurement": "effect on phosphorylation of MEK", "setting": "[2]; concentrations up to 100 μM", "result": "failed to suppress the phosphorylation of MEK; also recorded: little effects"}]}, {"smiles": "CCCS(=O)(=O)Nc1ccc(F)c(C(=O)c2c[nH]c3ncc(-c4ccc(Cl)cc4)cc23)c1F", "note": "[Vem, vemurafenib, reference compound]", "values": [{"measurement": "effect on phosphorylation of MEK and ERK", "setting": "[2]; concentrations above 1 μM", "result": "abolished the phosphorylation of MEK and ERK"}, {"measurement": "effect on phosphorylation of MEK", "setting": "[2]; various concentrations, Figure 4", "result": "potently blocked phosphorylation of MEK"}]}, {"smiles": "CC(C)n1nc(C#Cc2cccc(NC(=O)c3cccc(C(F)(F)F)c3)c2)c2c(N)ncnc21", "note": "[Compound 1]", "values": [{"measurement": "number of kinases inhibited by over 90%", "setting": "panel of 244 kinases", "result": 44}]}]}
